Experimental data published in patent US11401271B2, “Fused heterocyclic compound, pyrazole-ring-containing fused heterocyclic compound, agricultural composition containing thereof, and method of using the composition” (SOUTH CHINA AGRICULTURAL UNIVERSITY, priority 2017, dated 2022).
Counter-ions that a name gives are not always drawn.

How the values were obtained:
Assay in all cases: whole plant or invertebrate
Type in all cases: in vivo
Spodoptera exigua = details: 500 ppm; 2nd-instar larvae, leaf immersion feeding
Method in brief: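 Leaf immersion feeding: second-instar larvae (about 35 per vessel, triplicate) kept at 28° C on discs treated with 500 ppm test solution in 0.05% Tween-80. Mortality at 24 h, calculated relative to surviving larvae in the solvent control.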

Plutella xylostella = details: 500 ppm; 2nd-instar larvae, leaf immersion feeding
Method in brief: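 Leaf immersion feeding test: 2nd-instar larvae (about 35 per vessel, 3 replicates) kept at 28° C. on 1.0 cm cabbage discs soaked 5 s in a 500 ppm solution with 0.05% Tween-80. Mortality after 24 h of exposure, calculated relative to live larvae in the Tween-80 control.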

Aphis craccivora = details: 500 ppm; wingless adults, immersion 5 seconds, counted after 24 hours
Method in brief: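 Mortality scored 24 h after treatment as the reduction in live aphids versus a 0.05% Tween-80 control; three replicates, 23° C. Treatment was a 5 s immersion of wingless adults on bean sprouts in 500 ppm test solution containing 0.05% Tween-80, followed by air-drying.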

Solenopsis invicta = details: 100 ppm, water test tube poison-feeding
Method in brief: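 Mortality (%) of Solenopsis invicta, computed against live counts in control tubes, was recorded 24 h and 72 h after treatment at 25 °C. Compound was offered by oral feeding in test tubes at 100 ppm, diluted from a 10 g/L DMSO stock into water with 5% honey and 0.05% Tween-80.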

SMILES	Spodoptera exigua Mortality (%) (Spodoptera exigua)	Plutella xylostella Mortality (%) (Plutella xylostella)	Aphis craccivora Mortality (%) (Aphis craccivora)	Solenopsis invicta Mortality (%) 24 h (Solenopsis invicta) [%]	Solenopsis invicta Mortality (%) 72 h (Solenopsis invicta) [%]
N#Cc1nn2c(c1[S+]([O-])C(F)(F)F)NC(Cl)(CC(F)(F)F)c1c(Cl)cncc1-2 (stereo not shown) [b-48]	89	100	100	15	90
COC(=O)C(C)C1Nc2c([S+]([O-])C(F)(F)F)c(C#N)nn2-c2cncc(Cl)c21 (stereo not shown) [b-66]	91	96	100	28	97
N#Cc1nn2c(c1[S+]([O-])C(F)(F)F)NC(CC(=O)C(F)(F)F)c1c(Cl)cncc1-2 (stereo not shown) [b-70]	95	100	100	44	100
N#CCC1Nc2c([S+]([O-])C(F)(F)F)c(C#N)nn2-c2cncc(Cl)c21 (stereo not shown) [b-73]	85	89	100	20	90
N#Cc1nn2c(c1[S+]([O-])C(F)(F)F)NC(Cl)c1c(Cl)cncc1-2 (stereo not shown) [b-80]	90	95	100	14	90
CC=CC1Nc2c([S+]([O-])C(F)(F)F)c(C#N)nn2-c2cncc(Cl)c21 (stereo not shown) [b-86]	89	96	100	20	97
COC(=O)C1Nc2c([S+]([O-])C(F)(F)F)c(C(F)(F)F)nn2-c2cncc(Cl)c21 (stereo not drawn) [b-87, 6-chloro-2-trifluoromethyl-3-trifluoromethylsulfinyl-4,5-dihydropyrazole[1,5-α]quinazoline[4,3-e]pyridine-5-methyl formate]	95	95	100	14	100
COC(=O)CC1Nc2c([S+]([O-])C(F)(F)F)c(C(F)(F)F)nn2-c2cncc(Cl)c21 (stereo not shown) [b-88]	100	100	100	25	100
O=C(C1Nc2c([S+]([O-])C(F)(F)F)c(C(F)(F)F)nn2-c2cncc(Cl)c21)C(F)(F)F (stereo not shown) [b-94]	90	100	100	20	100
CNC(=O)C1Nc2c([S+]([O-])C(F)(F)F)c(C(F)(F)F)nn2-c2cncc(Cl)c21 (stereo not shown) [b-99]	85	91	100	24	90
[O-][S+](c1c(C(F)(F)F)nn2c1NC(Br)c1c(Cl)cncc1-2)C(F)(F)F (stereo not shown) [b-104]	96	96	100	20	96
COC(=O)CC1Nc2c(OC(F)(F)F)c(C#N)nn2-c2cncc(Cl)c21 (stereo not shown) [b-111]	100	100	100	24	100
N#Cc1nn2c(c1OC(F)(F)F)NC(CC(=O)C(F)(F)F)c1c(Cl)cncc1-2 (stereo not shown) [b-116]	98	100	100	20	100
N#Cc1nn2c(c1OC(F)(F)F)NC(C#N)c1c(Cl)cncc1-2 (stereo not shown) [b-118]	91	99	100	14	99
CNC(=O)CC1Nc2c(OC(F)(F)F)c(C#N)nn2-c2cncc(Cl)c21 (stereo not shown) [b-123]	95	99	100	24	100
CC(C)C1Nc2c(OC(F)(F)F)c(C#N)nn2-c2cncc(Cl)c21 (stereo not shown) [b-131]	95	95	100	11	100
COC(=O)CC1(C(=O)OC)Nc2c(C#N)c(C(F)(F)F)nn2-c2cncc(Cl)c21 (stereo not shown) [b-136]	100	100	100	20	97
COC(=O)CC1(C(=O)OC)Nc2c(C(F)(F)F)c(C#N)nn2-c2cc(C(F)(F)F)cc(Cl)c21 (stereo not shown) [c-2]	90	95	100	20	97
COC(=O)CC1(C(=O)OC)Nc2c(C#N)c(C(F)(F)F)nn2-c2cc(C(F)(F)F)cc(Cl)c21 (stereo not shown) [c-4]	100	97	100	29	93
COC(=O)C1(CC(=O)OCC(F)(F)F)Nc2c([S+]([O-])C(F)(F)F)c(C#N)nn2-c2cc(C(F)(F)F)cc(Cl)c21 (stereo not shown) [c-19]	100	100	100	20	100
COC(=O)C1(CC(=O)OCC(F)F)Nc2c([S+]([O-])C(F)(F)F)c(C#N)nn2-c2cc(C(F)(F)F)cc(Cl)c21 (stereo not shown) [c-20]	100	100	100	14	100
N#Cc1nn2c(c1[S+]([O-])C(F)(F)F)NC(Cc1ccccc1)(C(=O)C(F)(F)F)c1c(Cl)cc(C(F)(F)F)cc1-2 (stereo not shown) [c-36]	90	92	95	21	100
CC(=O)C1(C(=O)C(F)(F)F)Nc2c([S+]([O-])C(F)(F)F)c(C#N)nn2-c2cc(C(F)(F)F)cc(Cl)c21 (stereo not shown) [c-39]	89	95	100	24	90
N#Cc1nn2c(c1[S+]([O-])C(F)(F)F)NC(CCCl)(C(=O)C(F)(F)F)c1c(Cl)cc(C(F)(F)F)cc1-2 (stereo not shown) [c-42]	80	86	100	20	97
CC(=O)C1(CC(=O)C(F)(F)F)Nc2c([S+]([O-])C(F)(F)F)c(C#N)nn2-c2cc(C(F)(F)F)cc(Cl)c21 (stereo not shown) [c-47]	89	90	100	35	99
COC(=O)CC1(C(=O)OC)Nc2c([S+]([O-])C(F)(F)F)c(C#N)nn2-c2cc(OC(F)(F)F)cc(Cl)c21 (stereo not shown) [c-224]	95	99	100	25	100
COC(=O)CC1(C(=O)OC)Nc2c(OC(F)(F)F)c(C#N)nn2-c2c(Cl)cc(C(F)(F)F)cc21 (stereo not drawn) [d-3]	98	100	100	21	87
COC(=O)CC1(C(=O)OC)Nc2c([S+]([O-])C(F)(F)F)c(C(C)=O)nn2-c2c(Cl)cc(C(F)(F)F)cc21 (stereo not drawn) [d-8]	82	85	90	15	65
COC(=O)CC1(C(=O)OC)Nc2c([S+]([O-])C(F)(F)F)c(CN)nn2-c2c(Cl)cc(C(F)(F)F)cc21 (stereo not drawn) [d-9]	79	82	96	21	77
